The results in this text go back to ChEMBL document CHEMBL4265968, “Efficient analoging around ethionamide to explore thioamides bioactivation pathways triggered by boosters in Mycobacterium tuberculosis” (Eur J Med Chem, 2018).

The test system of data set [1] is Mycobacterium tuberculosis. As to the kind of experiment: Antimycobacterial activity against GFP expressing Mycobacterium tuberculosis H37Rv after 7 days by fluorescence assay. It counts as functional. Particulars: 168 h.
The test system of data set [2] is Mycobacterium tuberculosis. As to the kind of experiment: Antimycobacterial activity against GFP expressing Mycobacterium tuberculosis H37Rv after 7 days in presence of EthR inhibitor BDM41906 by fluorescence assay. Type of data set: functional. Particulars: 168 h.
Data set [3] concerns Mycobacterium tuberculosis. As to the kind of experiment: Antimycobacterial activity against GFP expressing Mycobacterium tuberculosis H37Rv after 7 days in presence of EthR2 inhibitor SMARt-420 by fluorescence assay. Particulars: 168 h. It counts as functional.
Data set [4] deals with Mycobacterium tuberculosis. As to the kind of experiment: Ratio of MIC50 for GFP expressing Mycobacterium tuberculosis H37Rv in absence of EthR inhibitor BDM41906 to MIC50 for GFP expressing Mycobacterium tuberculosis H37Rv in presence of EthR inhibitor BDM41906. It counts as functional.
Data set [5] concerns Mycobacterium tuberculosis. As to the kind of experiment: Ratio of MIC50 for GFP expressing Mycobacterium tuberculosis H37Rv in absence of EthR2 inhibitor SMARt-420 to MIC50 for GFP expressing Mycobacterium tuberculosis H37Rv in presence of EthR2 inhibitor SMARt-420. Type of data set: functional.
A short description of data set [6]: Electrochemical behavior of the compound assessed as redox potential corrected toward normal hydrogen electrode at 10^-3 M by cyclic voltammetry. Type of data set: physicochemical. The conditions noted are these: 1000 µM.

In brackets after ≈: the same amount, converted by molar mass.

Regarding `CCc1cc(C(N)=S)ccn1` [ETHIONAMIDE], the results for the MIC50 in data set [1], in data set [2] and in data set [3] were 19 µM (≈ 3.16 µg/mL), 2 µM and 0.9 µM, respectively. The results for the Ratio in data set [4] and in data set [5] were 10 and 21, respectively. In data set [6], the Activity was found to be 1.46 V.

As to `CC(c1ccccc1)c1cc(C(N)=S)ccn1` (centres undefined), the MIC50 was over 30 µM in data set [1], 0.6 µM in data set [2] and 0.7 µM in data set [3]. Besides, the Ratio in data set [4] was over 50; in data set [5], over 43.

Take `NC(=S)c1ccnc(Cc2ccccc2)c1`: the MIC50 in data set [1] was 1.1 µM (≈ 0.251 µg/mL); in data set [2], 0.1 µM; in data set [3] it was 0.1 µM. The Ratio in data set [4] and in data set [5] was 11 throughout.

Regarding `CCCCc1cc(C(N)=S)ccn1`, the MIC50 was 5.8 µM (≈ 1.13 µg/mL) in data set [1], 0.6 µM in data set [2] and 0.4 µM in data set [3]. The figures for the Ratio in data set [4] and in data set [5] were 10 and 15, respectively. In data set [6], the Activity is recorded as 1.39 V.

Turning to `CCC(C)c1cc(C(N)=S)ccn1` (centres undefined), the MIC50 in data set [1] came out at 30 µM (≈ 5.83 µg/mL); in data set [2] it was 0.2 µM; in data set [3] it was 0.2 µM. In addition, the Ratio in data set [4] and in data set [5] was 150 throughout. Moreover, in data set [6], the Activity was 1.48 V.

On to `CCc1cc(/C(N)=[S+]/[O-])ccn1`, for which the MIC50 came to 10 µM (≈ 1.82 µg/mL) in data set [1], 0.4 µM in data set [2] and 0.3 µM in data set [3]. The Ratio was 25 in data set [4] and 33 in data set [5].

As to `NC(=S)c1ccnc(C2CC2)c1`, the MIC50 in data set [1] stood at 6.6 µM (≈ 1.18 µg/mL); in data set [2], 1 µM; in data set [3], 0.5 µM. In addition, the Ratio in data set [4] was 7; in data set [5] it was 13. Besides, in data set [6], the Activity was determined as 1.4 V.

For `NC(=S)c1ccnc(CC2CCCCC2)c1`, the MIC50 in data set [1] was over 30 µM; in data set [2], 0.6 µM; in data set [3], 0.7 µM. Besides, the Ratio in data set [4] is on record as over 50; in data set [5], over 43. In addition, the Activity in data set [6] amounted to 1.62 V.

In the case of `NC(=S)c1ccnc(Cc2ccc(F)cc2)c1`, the MIC50 in data set [1] was 1 µM (≈ 0.246 µg/mL); in data set [2], 0.2 µM; in data set [3] it was 0.1 µM. In addition, the Ratio is reported as 5 in data set [4] and 10 in data set [5].

As to `CC(C)CCc1cc(C(N)=S)ccn1`, the MIC50 in data set [1] was found to be 6.6 µM (≈ 1.37 µg/mL); in data set [2] it was 0.1 µM; in data set [3] it was 0.1 µM. Also, the Ratio in data set [4] and in data set [5] was 52 throughout. Further, the Activity in data set [6] is on record as 1.63 V.

As for `CC(C)c1cc(C(N)=S)ccn1`, the MIC50 in data set [1] was determined as 21 µM (≈ 3.79 µg/mL); in data set [2], 0.1 µM; in data set [3], 0.2 µM. Besides, the Ratio in data set [4] stood at 210; in data set [5], 105. Moreover, the Activity in data set [6] came out at 1.62 V.

Turning to `CC(C)Cc1cc(C(N)=S)ccn1`, the figures for the MIC50 in data set [1], in data set [2] and in data set [3] were over 30 µM, 9.1 µM and 3.8 µM, respectively. Also, the figures for the Ratio in data set [4] and in data set [5] were over 3 and over 8, respectively. The Activity in data set [6] was 1.57 V.

As to `CCOC(=O)CCc1cc(C(N)=S)ccn1`, the results for the MIC50 in data set [1], in data set [2] and in data set [3] were over 30 µM, 3.8 µM and 1.3 µM, respectively. Moreover, the results for the Ratio in data set [4] and in data set [5] were over 8 and over 23, respectively.

For `NC(=S)c1ccnc(C2(C(F)(F)F)CC2)c1`, the MIC50 in data set [1] is over 30 µM; in data set [2] it was 10 µM; in data set [3] it was 10 µM. Further, the Ratio in data set [4] and in data set [5] was over 3 throughout. For the same compound, the Activity in data set [6] is 1.65 V.

Turning to `COc1ccc(Cc2cc(C(N)=S)ccn2)cc1`, the MIC50 was 2.4 µM (≈ 0.62 µg/mL) in data set [1], 0.3 µM in data set [2] and 0.2 µM in data set [3]. The figures for the Ratio in data set [4] and in data set [5] were 8 and 12, respectively.

With `NC(=S)c1ccnc(Cc2cccc(F)c2)c1`, the MIC50 in data set [1] came to 0.6 µM (≈ 0.148 µg/mL); in data set [2], 0.1 µM; in data set [3], 0.1 µM. Besides, the Ratio in data set [4] and in data set [5] was 6 throughout.

Turning to `NC(=S)c1ccnc(CC(F)(F)F)c1`, the MIC50 in data set [1] was over 30 µM; in data set [2] it was 10 µM; in data set [3], 1.5 µM. For the same compound, the Ratio in data set [4] was over 3; in data set [5], over 20. Besides, in data set [6], the Activity is recorded as 1.55 V.

Consider `N#Cc1cccc(Cc2cc(C(N)=S)ccn2)c1`, for which the results for the MIC50 in data set [1], in data set [2] and in data set [3] were 0.5 µM (≈ 0.127 µg/mL), 0.1 µM and 0.1 µM, respectively. Besides, the Ratio in data set [4] and in data set [5] was 5 each time.

As for `CCCc1cc(C(N)=S)ccn1` [PROTIONAMIDE], the MIC50 was found to be 13 µM (≈ 2.34 µg/mL) in data set [1], 0.9 µM in data set [2] and 0.5 µM in data set [3]. Further, the Ratio in data set [4] is given as 14; in data set [5], 26. In data set [6], the Activity stood at 1.43 V.

As for `CCCCc1cc(C(N)=O)ccn1`, the MIC50 in data set [1], in data set [2] and in data set [3] was over 30 µM each time.

A word on the MIC50: it is the lowest concentration that inhibits either 50% of growth or 50% of the strains tested, depending on the study.
